According to patent US12589143B2, “Human anti-PD-L1 peptide vaccines and methods of their use” (priority 2019, dated 2026):
Where no end group is shown, it is not given here.

Assays:
PD-1/PD-L1 interaction = target: T1, PD-1/PD-L1 interaction (Homo sapiens, UniProt Q9NZQ7); assay: PD-1/PD-L1 blockade bioassay (Promega); type: cell-based; details: antibodies from immunized rabbits, compared to Nivolumab and Atezolizumab
T1 construct: host or cells: PD-L1 aAPC/CHO-K1 cells and PD-1 effector cells
Description: The assay was performed following the manufacturer's protocol for the PD-1/PD-L1 blockade bioassay (Promega).
The bioluminescent cell-based PD-1/PD-L1 blockade bioassays provide a good option for rapid screening of therapeutic antibodies or other compounds developed to interfere with PD-1-signaling interaction. PD1/PD-L1 blockade assay was used to test the functionality of 3 anti-PD-L1 antibodies. It was observed that purified polyclonal anti-PD-L1 antibody from the rabbits was able to block PD1/PD-L1 interaction similar to commercial anti-human PD-L1 antibody (FIG. 12). […] In FIG. 12, we show the capacity of each of the PD-L1 vaccines to block the PD-1:PD-L1 interaction as compared to Nivolumab and Atezolizumab. Remarkably only PD-L1 130-147 antibodies were effective
The assay was performed following the manufacturer's protocol for the PD-1/PD-L1 blockade bioassay (Promega). In brief, 4×10^5 aAPC/CHO-K1 or PD-L1 aAPC/CHO-K1 cells were seeded into 96-well plates in RPMI-1640 with 10% FBS. After overnight culturing, the medium was aspirated, and serially diluted purified PD-L1 or PD-1 antibodies, as well as Nivolumab and Atezolizumab antibodies (as reference antibodies) were added. Next, PD-1 effector cells were co-cultured and plate was kept for 5 h at 37° C. in a humidified 5% CO2 incubator. Following mixing with Bio-Glo Reagent, the luminescence was measured with a luminescence plate reader, SpectraMax M3 plate reader (Molecular Devices).

[1] = system: MVF-PD-L1 peptide immunogen; assay: Immunogenicity in Balb/c mice, experiment 2 (CT26/HER-2): ELISA of sera vs each MVF-PD-L1 peptide immunogen; type: in vivo; details: Balb/c mice
Description: Immunogenicity of MVF-PD-L1 B-cell epitopes. New Zealand White rabbits were immunized with 1 mg of each MVF-peptide immunogens dissolved in dd H2O emulsified (1:1) in Montanide ISA 720 vehicle (Seppic) with 333 μg of N-acetylglucosamine-3yl-acetyl-1-alanyl-d-isoglutamine (nor-MDP). Rabbits were boosted with the same doses at 3-week's intervals. Blood was collected via the central auricular artery in rabbits. Blood was collected weekly (1Y+3, 2Y+1, 2Y+2,2Y+3, 3Y+1, 3Y+2 and sera tested for antibody titers by ELISA using the immunogens MVF-PD-L1 peptides. Sera (terminal) from rabbit (3Y+3) immunized with MVF-PD-1 peptide immunogens were tested individually versus the immunogen by ELISA. 200 ng/well peptide were used in duplicates to coat the ELISA plates. Titers are defined as the highest dilution of sera with an absorbance value of 0.2 after subtracting the blank. […]
In order to verify the efficacy of the PD-L1 epitope vaccines in vivo in the CT26/HER-2 carcinoma cell line, Balb/c mice (10 mice/group) were immunized with 100 μg each of MVF-PD-L1 (36-53), MVF-PD-L1 (50-67), MVF-PD-L1 (95-112) and MVF-PD-L1 (130-147) emulsified with nor-MDP and Montanide 720 (1:1 ratio) SCHEME 2A (FIG. 15A). As detailed in SCHEME 2A-D (FIGS. 15A, 15B, 15C, and 15D), mice were immunized 3 times at 3 weeks intervals. […] All PD-L1 epitopes elicited high titers of PD-L1 anti-peptide antibodies by ELISA. […] We also investigated the combination of PD-1(92-110) with PD-L1-95.
For each peptide, vaccine antibodies were raised in New Zealand white rabbits, purchased from Charles River Laboratories (Wilmington, MA, USA). Rabbits were immunized with 1 mg of MVF chimeric peptide emulsified in Montanide ISA 720 (Seppic, Paris, France) and boosted 3 times at three week intervals. For mouse experiments, mice, 6-8 weeks old, were immunized with 0.1 mg of peptide emulsified in ISA720 (1:1 ratio). Mice were boosted with the respective doses at 3-week intervals. Blood was then collected and sera were tested for antibody titers. Sera were collected weekly and peptide vaccine antibodies were purified by affinity chromatography using a protein A/G column and the concentration was measured using Spectrophometer. All experiments were performed in accordance with the U.S. Public Health Service Policy on Humane Care and Use of Laboratory animals and approved by the Ohio State University Institutional Animals Care and Use Committee, detailed in the accepted protocol.
6-8 weeks old BALB/c mice (Charles River, Wilmington, MA) were used as standard animal models. Mouse CT26 colon carcinoma cell line was purchased from American Type Culture Collection Cells and were regularly cultured in RPMI1640 medium containing 10% FBS. CT26/HER2 cells were kindly provided by M. Penichet. Vaccines were dissolved in sterile water and emulsified in Montanide ISA 720 (1:1). Female Balb/c mice (Charles River Laboratories) at the age of 6-8 weeks were immunized three times at 3-week intervals with 100 μg of each peptide vaccine, and 2 weeks after the third immunization, the mice were challenged with CT26 and/or CT26/HER-2 tumor cells, which were implanted subcutaneously (s.c) on the right flank (1×10^5 per mouse). 200 μg of rat α-mouse PD-L1 mAb 10F.9G2 (Bio X Cell, West Lebanon, NH) were administered intraperitoneally (i.p.), twice weekly following tumor inoculation in the control group. Mice were monitored and scored for the formation of palpable tumors on a daily basis and sacrificed if tumors became necrotic or exceeded the predetermined size of 2,000 mm^3. Tumor volumes were measured in cubic millimeters with calipers and calculated with the following formula: A×B^2×0.5, where A is the largest diameter, and B is the widest point perpendicular to length. During immunization, blood was drawn weekly and used in ELISA to monitor antibody titers.

T1 sequence (Q9NZQ7 19-290): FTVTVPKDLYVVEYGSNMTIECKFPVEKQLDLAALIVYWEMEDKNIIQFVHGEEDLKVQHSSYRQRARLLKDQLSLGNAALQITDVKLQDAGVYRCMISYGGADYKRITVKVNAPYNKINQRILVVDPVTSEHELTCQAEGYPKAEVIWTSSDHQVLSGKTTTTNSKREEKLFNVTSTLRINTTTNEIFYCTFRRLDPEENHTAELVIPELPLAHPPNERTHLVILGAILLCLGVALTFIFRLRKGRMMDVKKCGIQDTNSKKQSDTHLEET

Sequence	blocking of PD-1/PD-L1 interaction (PD-1/PD-L1 interaction)	Immunogenicity (titers) 1′ Conc. 1: ([1]; bleed 1Y + 3)	Immunogenicity (titers) 1′ Conc. 1: ([1]; bleed 2Y + 1)	Immunogenicity (titers) 1′ Conc. 1: ([1]; bleed 2Y + 2)	Immunogenicity (titers) 1′ Conc. 1: ([1]; bleed 2Y + 3)	Immunogenicity (titers) 1′ Conc. 1: ([1]; bleed 3Y + 1)	Immunogenicity (titers) 1′ Conc. 1: ([1]; bleed 3Y + 2)	Immunogenicity (titers) 1′ Conc. 1: ([1]; bleed 3Y + 3)
KLLSLIKGVIVHRLEGVEGPSLFVHGEEDLKVQHSSYRQR (KLLSLIKGVIVHRLEGVEGPSLFVHGEEDLKVQHSSYRQR-NH2) [PD-L1(50)]	unable to block PD-1 and PD-L1	6400	25600	128000	128000	128000	256000	256000
KLLSLIKGVIVHRLEGVEGPSLLIVYWEMEDKNIIQFVHG (KLLSLIKGVIVHRLEGVEGPSLLIVYWEMEDKNIIQFVHG-NH2) [PD-L1(36)]	–	0	1600	4000	32000	16000	32000	16000
